PMC6931042 (Bioorganic chemistry, 2018)
Read-outs that look alike come from different tables or passages of the source.

Legend:
UACC-62 = assay: NCI in vitro five dose anticancer assay; type: cell-based, human; details: Homo sapiens
A549 cells = assay: Apoptosis, annexin V-FITC/PI flow cytometry; type: cell-based, human; details: for percentage of apoptotic cells: 48 h
NCI-H226 = assay: NCI in vitro five dose anticancer assay; type: cell-based, human; details: Homo sapiens
MDA-MB-468 = assay: NCI in vitro five dose anticancer assay; type: cell-based, human; details: Homo sapiens
[1] = tested on: chronic myeloid leukemia K-562; assay: Trypan blue exclusion cytotoxicity assay
M14 = assay: NCI in vitro five dose anticancer assay; type: cell-based, human; details: Homo sapiens
A549 and K-562 cells = assay: Cytotoxicity IC50 stated jointly for the 2 cell lines; type: cell-based, human; details: Homo sapiens, read-out: IC50 against the 2 cell lines tested
A498 = assay: NCI in vitro five dose anticancer assay; type: cell-based, human; details: Homo sapiens
[2] = tested on: Bax and cleaved caspases (3, 8, and 9) in K-562 cells; assay: Western blotting, apoptosis markers; type: cell-based, human; details: 24 h, 1, 3 and 6 μM, western blot
HCT-116 = assay: NCI in vitro five dose anticancer assay; type: cell-based, human; details: Homo sapiens
SK-MEL-5 = assay: NCI in vitro five dose anticancer assay; type: cell-based, human; details: Homo sapiens
K-562 cells [3] = assay: Cell cycle analysis by flow cytometry; type: cell-based, human; details: 24 h
K-562 cells [4] = assay: Apoptosis, annexin V-FITC/PI flow cytometry; type: cell-based, human; details: 24 h
[5] = tested on: Bcl-2, Bax, and cleaved caspases (3, 8, and 9) in A549 cells; assay: Western blotting, apoptosis markers; type: cell-based, human; details: 48 h, 1, 3 and 6 μM, western blot
T-47D = assay: NCI in vitro five dose anticancer assay; type: cell-based, human; details: Homo sapiens, T47D
UO-31 = assay: NCI in vitro five dose anticancer assay; type: cell-based, human; details: Homo sapiens
OVCAR-3 = assay: NCI in vitro five dose anticancer assay; type: cell-based, human; details: Homo sapiens
[6] = tested on: p-PI3K, p-Akt, p-mTOR and p-GSK-3β in K-562 cells; assay: Western blotting, PI3K/Akt/mTOR pathway; type: cell-based, human; details: 1, 3, or 6 μM, western blot, dose-dependent
BT-549 = assay: NCI in vitro five dose anticancer assay; type: cell-based, human; details: Homo sapiens
SF-295 = assay: NCI in vitro five dose anticancer assay; type: cell-based, human; details: Homo sapiens
[7] = tested on: p-PI3K, p-Akt, p-mTOR and p-GSK-3β in A549 cells; assay: Western blotting, PI3K/Akt/mTOR pathway; type: cell-based, human; details: 1, 3, or 6 μM, western blot, dose-dependent
[8] = tested on: p53, p21, cyclin B1 and Cdc2 in K-562 cells; assay: Western blotting, p53 and cell cycle regulators; type: cell-based, human; details: 1, 3 and 6 μM, western blot
RPMI-8226 = assay: NCI in vitro five dose anticancer assay; type: cell-based, human; details: Homo sapiens
SK-OV-3 = assay: NCI in vitro five dose anticancer assay; type: cell-based, human; details: Homo sapiens
SN12C = assay: NCI in vitro five dose anticancer assay; type: cell-based, human; details: Homo sapiens
PI3K-γ = PI3K-γ (Homo sapiens, UniProt P48736); assay: PI3K biochemical assay
PI3K-δ = PI3K-δ (Homo sapiens, UniProt O00329); assay: PI3K biochemical assay
HT29 = assay: NCI in vitro five dose anticancer assay; type: cell-based, human; details: Homo sapiens, HT-29
PC-3 = assay: NCI in vitro five dose anticancer assay; type: cell-based, human; details: Homo sapiens
HOP-62 = assay: NCI in vitro five dose anticancer assay; type: cell-based, human; details: Homo sapiens
PI3K-α = PI3K-α (Homo sapiens, UniProt P42336); assay: PI3K biochemical assay
SNB-19 = assay: NCI in vitro five dose anticancer assay; type: cell-based, human; details: Homo sapiens
SF-268 = assay: NCI in vitro five dose anticancer assay; type: cell-based, human; details: Homo sapiens
MALME-3M = assay: NCI in vitro five dose anticancer assay; type: cell-based, human; details: Homo sapiens, Malme-3M
DU-145 = assay: NCI in vitro five dose anticancer assay; type: cell-based, human; details: Homo sapiens
IGROV1 = assay: NCI in vitro five dose anticancer assay; type: cell-based, human; details: Homo sapiens, IGROV-1
[9] = tested on: human lung adenocarcinoma A549; assay: Trypan blue exclusion cytotoxicity assay
HS 578T = assay: NCI in vitro five dose anticancer assay; type: cell-based, human; details: Homo sapiens, Hs-578T
HL-60(TB) = assay: NCI in vitro five dose anticancer assay; type: cell-based, human; details: Homo sapiens, HL-60
K-562 = assay: NCI in vitro five dose anticancer assay; type: cell-based, human; details: Homo sapiens, K562

Sequence of PI3K-γ (P48736 whole entry): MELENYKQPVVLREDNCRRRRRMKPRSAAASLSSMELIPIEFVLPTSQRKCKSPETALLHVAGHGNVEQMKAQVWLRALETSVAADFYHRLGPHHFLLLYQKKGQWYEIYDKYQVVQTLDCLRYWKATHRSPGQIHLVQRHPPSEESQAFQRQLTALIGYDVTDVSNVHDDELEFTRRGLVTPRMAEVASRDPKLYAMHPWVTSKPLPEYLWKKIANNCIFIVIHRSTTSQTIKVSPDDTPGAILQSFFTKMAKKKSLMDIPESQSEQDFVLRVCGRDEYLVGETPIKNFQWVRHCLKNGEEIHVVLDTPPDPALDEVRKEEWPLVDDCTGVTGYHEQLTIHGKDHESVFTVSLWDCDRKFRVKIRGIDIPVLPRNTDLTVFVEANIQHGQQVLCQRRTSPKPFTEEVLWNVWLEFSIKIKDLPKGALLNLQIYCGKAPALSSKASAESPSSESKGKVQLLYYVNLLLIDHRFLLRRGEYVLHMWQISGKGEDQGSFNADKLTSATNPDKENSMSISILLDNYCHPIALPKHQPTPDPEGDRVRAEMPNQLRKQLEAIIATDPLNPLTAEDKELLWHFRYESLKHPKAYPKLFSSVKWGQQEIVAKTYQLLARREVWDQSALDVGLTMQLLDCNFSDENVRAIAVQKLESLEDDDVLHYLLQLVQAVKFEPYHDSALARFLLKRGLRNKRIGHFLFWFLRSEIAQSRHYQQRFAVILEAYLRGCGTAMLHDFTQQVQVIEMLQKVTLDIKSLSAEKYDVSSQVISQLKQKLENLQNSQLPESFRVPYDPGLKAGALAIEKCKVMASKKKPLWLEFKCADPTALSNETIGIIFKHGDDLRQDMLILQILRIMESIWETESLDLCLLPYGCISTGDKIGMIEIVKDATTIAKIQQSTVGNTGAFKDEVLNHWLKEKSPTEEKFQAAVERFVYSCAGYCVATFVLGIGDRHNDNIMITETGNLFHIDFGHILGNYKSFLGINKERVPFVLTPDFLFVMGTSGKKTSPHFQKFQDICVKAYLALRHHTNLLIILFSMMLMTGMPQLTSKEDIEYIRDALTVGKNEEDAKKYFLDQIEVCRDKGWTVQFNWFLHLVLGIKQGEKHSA
Sequence of PI3K-α (P42336 whole entry): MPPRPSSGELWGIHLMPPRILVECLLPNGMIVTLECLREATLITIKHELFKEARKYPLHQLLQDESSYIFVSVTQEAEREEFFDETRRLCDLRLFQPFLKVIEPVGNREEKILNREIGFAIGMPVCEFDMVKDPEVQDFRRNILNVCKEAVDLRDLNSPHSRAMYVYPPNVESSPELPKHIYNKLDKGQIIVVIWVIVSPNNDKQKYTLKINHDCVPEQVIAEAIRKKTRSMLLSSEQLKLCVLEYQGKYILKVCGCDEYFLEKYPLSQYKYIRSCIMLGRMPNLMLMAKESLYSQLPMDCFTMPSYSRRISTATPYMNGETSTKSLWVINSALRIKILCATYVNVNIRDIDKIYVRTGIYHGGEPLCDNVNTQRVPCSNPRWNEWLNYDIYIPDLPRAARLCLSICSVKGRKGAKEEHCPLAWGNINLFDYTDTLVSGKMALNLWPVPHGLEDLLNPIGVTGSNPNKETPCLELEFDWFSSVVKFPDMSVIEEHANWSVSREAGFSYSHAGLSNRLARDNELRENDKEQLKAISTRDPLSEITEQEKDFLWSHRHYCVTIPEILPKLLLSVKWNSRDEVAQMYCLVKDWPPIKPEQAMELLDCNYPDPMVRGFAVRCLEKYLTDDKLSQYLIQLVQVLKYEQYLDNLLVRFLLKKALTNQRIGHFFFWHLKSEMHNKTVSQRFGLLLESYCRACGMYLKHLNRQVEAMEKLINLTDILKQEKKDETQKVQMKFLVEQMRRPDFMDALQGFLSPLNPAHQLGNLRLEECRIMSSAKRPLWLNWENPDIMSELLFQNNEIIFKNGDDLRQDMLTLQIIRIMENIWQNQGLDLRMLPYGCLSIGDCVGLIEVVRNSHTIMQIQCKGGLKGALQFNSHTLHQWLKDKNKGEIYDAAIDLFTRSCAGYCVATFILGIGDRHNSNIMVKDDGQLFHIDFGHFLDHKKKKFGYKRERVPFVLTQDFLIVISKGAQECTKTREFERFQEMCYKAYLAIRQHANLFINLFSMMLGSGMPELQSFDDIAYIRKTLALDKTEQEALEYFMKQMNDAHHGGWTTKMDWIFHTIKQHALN
Sequence of PI3K-α (P27986 whole entry partner): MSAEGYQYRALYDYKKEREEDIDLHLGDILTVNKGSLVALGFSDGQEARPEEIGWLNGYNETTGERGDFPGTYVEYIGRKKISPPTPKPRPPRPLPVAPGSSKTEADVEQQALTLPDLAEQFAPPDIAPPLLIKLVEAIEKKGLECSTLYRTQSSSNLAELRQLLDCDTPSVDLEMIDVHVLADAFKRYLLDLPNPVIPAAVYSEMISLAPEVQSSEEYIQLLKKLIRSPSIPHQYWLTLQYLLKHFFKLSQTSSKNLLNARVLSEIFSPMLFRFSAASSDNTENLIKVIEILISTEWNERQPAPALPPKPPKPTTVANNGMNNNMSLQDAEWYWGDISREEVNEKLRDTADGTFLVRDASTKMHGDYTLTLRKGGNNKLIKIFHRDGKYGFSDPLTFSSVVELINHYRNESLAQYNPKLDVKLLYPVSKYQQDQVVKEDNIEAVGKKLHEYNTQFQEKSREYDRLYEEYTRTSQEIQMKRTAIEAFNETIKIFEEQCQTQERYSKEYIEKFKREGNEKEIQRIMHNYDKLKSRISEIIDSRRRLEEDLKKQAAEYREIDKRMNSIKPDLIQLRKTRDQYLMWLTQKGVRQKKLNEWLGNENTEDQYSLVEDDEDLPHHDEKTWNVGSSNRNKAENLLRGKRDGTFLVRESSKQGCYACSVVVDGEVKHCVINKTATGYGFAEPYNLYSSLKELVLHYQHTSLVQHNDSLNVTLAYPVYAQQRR
Sequence of PI3K-δ (O00329 whole entry): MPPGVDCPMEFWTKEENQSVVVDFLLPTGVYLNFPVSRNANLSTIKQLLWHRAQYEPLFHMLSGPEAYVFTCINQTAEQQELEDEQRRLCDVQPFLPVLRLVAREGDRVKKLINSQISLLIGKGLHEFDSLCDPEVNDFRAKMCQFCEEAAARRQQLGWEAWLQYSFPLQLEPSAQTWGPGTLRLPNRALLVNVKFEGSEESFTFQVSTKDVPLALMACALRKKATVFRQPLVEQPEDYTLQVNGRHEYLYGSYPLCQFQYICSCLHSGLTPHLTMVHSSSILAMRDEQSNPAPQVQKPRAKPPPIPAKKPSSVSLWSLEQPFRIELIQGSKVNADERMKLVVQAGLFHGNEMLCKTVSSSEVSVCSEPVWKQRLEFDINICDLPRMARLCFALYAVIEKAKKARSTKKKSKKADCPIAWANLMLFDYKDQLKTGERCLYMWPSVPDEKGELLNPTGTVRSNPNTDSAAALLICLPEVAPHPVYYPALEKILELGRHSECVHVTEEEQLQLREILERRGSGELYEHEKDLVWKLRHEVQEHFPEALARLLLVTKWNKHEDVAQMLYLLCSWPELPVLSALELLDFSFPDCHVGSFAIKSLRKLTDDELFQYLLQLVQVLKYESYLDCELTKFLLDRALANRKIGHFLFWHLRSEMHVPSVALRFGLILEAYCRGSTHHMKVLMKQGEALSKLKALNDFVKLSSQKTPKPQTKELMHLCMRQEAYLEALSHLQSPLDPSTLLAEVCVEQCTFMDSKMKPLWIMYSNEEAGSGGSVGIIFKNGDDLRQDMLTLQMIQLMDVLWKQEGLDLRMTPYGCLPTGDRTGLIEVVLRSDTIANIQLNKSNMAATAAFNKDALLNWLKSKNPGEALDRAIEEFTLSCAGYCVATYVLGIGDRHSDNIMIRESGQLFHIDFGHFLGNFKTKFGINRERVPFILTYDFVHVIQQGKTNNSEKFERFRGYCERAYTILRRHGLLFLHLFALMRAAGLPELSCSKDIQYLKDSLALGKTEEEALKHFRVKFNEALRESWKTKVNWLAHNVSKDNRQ
Sequence of PI3K-δ (P27986 whole entry partner): as the sequence (P27986 whole entry partner) above

With `Cc1ccc(-c2cc(C(=O)NN=C(/C=C\c3ccc(Cl)cc3)c3ccc(N)cc3)c3ccccc3n2)cc1` [Compound 9j, N’-((Z)-1-(4-Aminophenyl)-3-(4-chlorophenyl)allylidene)-2-(4-methylphenyl)quinoline-4-carbohydrazide] the GI50 (UACC-62) was 2.06 µM, the “percentage of apoptotic cells” value (A549 cells; 1 μM) was 14.68% and the “percentage of apoptotic cells” value (A549 cells; 3 μM) was 14.07%. For the same compound, the “percentage of apoptotic cells” value (A549 cells; 6 μM) was 28.1%, the “proportion of apoptotic cells compared to control” value (A549 cells; 1, 3, or 6 μM, 24 h, data not shown) was “did not result in changes” and the GI50 (NCI-H226) was 6.47 µM. It also gave a GI50 (MDA-MB-468) of 4.91 µM, an IC50 ([1]; Homo sapiens, K562, 24 h, read-out: K-562 (IC50 μM), trypan blue exclusion, mean ± SD) of 2.7 µM and an IC50 ([1]; read-out: K-562 (IC50 μM), trypan blue exclusion, 24 h, mean ± SD) of 2.67 ± 0.27 µM. It also gave a GI50 (M14) of 2.54 µM, an IC50 (A549 and K-562 cells) of 1.91 to 5.29 µM and a GI50 (A498) of 1.64 µM. For the same compound, the “levels of cleaved caspase 8” value [2] was “not change”, the “levels of Bax” value ([2]; dose-dependent) was “increased” and the “levels of cleaved caspase 3” value ([2]; dose-dependent) was “increased”. For the same compound, the “levels of cleaved caspase 9” value ([2]; dose-dependent) was “increased”, the GI50 (HCT-116) was 3.18 µM and the GI50 (SK-MEL-5) was 2.5 µM. The “percentage of cells in the G2/M phase” value (K-562 cells [3]; 1 μM) was 5.1%, the “percentage of cells in the G2/M phase” value (K-562 cells [3]; 3 μM) was 16.6% and the “percentage of cells in the G2/M phase” value (K-562 cells [3]; 6 μM) was 41.7%. The “percentage of apoptotic cells” value (K-562 cells [4]; 1 μM) was 16.65%, the “percentage of apoptotic cells” value (K-562 cells [4]; 3 μM) was 39.4% and the “percentage of apoptotic cells” value (K-562 cells [4]; 6 μM) was 47.1%. The “levels of Bcl-2” value [5] was “decreased”, the “levels of cleaved caspase 8” value [5] was “not altered” and the “levels of Bax” value ([5]; dose-dependent) was “increased”. The “levels of cleaved caspase 3” value ([5]; dose-dependent) was “increased”, the “levels of cleaved caspase 9” value ([5]; dose-dependent) was “increased” and the GI50 (T-47D) was 2.73 µM. For the same compound, the GI50 (UO-31) was 2.2 µM, the GI50 (OVCAR-3) was 2.98 µM and the “levels of phosphorylated Akt (at Ser473)” value [6] was “decreases”. The “levels of phosphorylated GSK-3β” value [6] was “decreases”, the “levels of phosphorylated PI3K (at Tyr458)” value [6] was “decreases” and the “levels of phosphorylated mTOR (at Ser2448)” value [6] was “decreases”. For the same compound, the GI50 (BT-549) was 3.92 µM, the GI50 (SF-295) was 3.13 µM and the “levels of phosphorylated Akt (at Ser473)” value [7] was “decreases”. For the same compound, the “levels of phosphorylated GSK-3β” value [7] was “decreases”, the “levels of phosphorylated PI3K (at Tyr458)” value [7] was “decreases” and the “levels of phosphorylated mTOR (at Ser2448)” value [7] was “decreases”. The “expression of non-functional p53” value [8] was “no effect”, the “expression of Cdc2” value ([8]; dose dependent) was “attenuated” and the “expression of cyclin B1” value ([8]; dose dependent) was “attenuated”. The “expression of p21” value ([8]; dose dependent) was “significantly induced”, the GI50 (RPMI-8226) was 4.1 µM and the GI50 (SK-OV-3) was 4.94 µM. The GI50 (SN12C) was 6.84 µM, the IC50 (PI3K-γ) was 0.197 µM and the IC50 (PI3K-δ) was 0.473 µM. It also gave a GI50 (HT29) of 3.35 µM, a GI50 (PC-3) of 3.4 µM and a GI50 (HOP-62) of 4.62 µM. For the same compound, the IC50 (PI3K-α) was 0.271 µM, the GI50 (SNB-19) was 6.51 µM and the GI50 (SF-268) was 4.09 µM. It also gave a GI50 (MALME-3M) greater than 100 µM, a GI50 (DU-145) of 3.68 µM and a GI50 (IGROV1) of 6.48 µM. For the same compound, the IC50 ([9]; Homo sapiens, A549, 24 h, read-out: A549 (IC50 μM), trypan blue exclusion, mean ± SD) was 5 µM, the IC50 ([9]; read-out: A549 (IC50 μM), trypan blue exclusion, 24 h, mean ± SD) was 5.29 ± 0.19 µM and the GI50 (HS 578T) was 4.68 µM. For the same compound, the GI50 (HL-60(TB)) was 3.49 µM and the GI50 (K-562) was 3.09 µM.
